Reference: paper PMC10746543, “Design principles for cyclin K molecular glue degraders” (Nature Chemical Biology, 2023)
Several values for one entry are separate records, joined by “and”; a condition that tells them apart may be missing. Equal entries are not always repeated. Where two headings read alike, the source gives them in different places.

What was measured:
CDK2–cyclin A = molecular target: T1, CDK2–cyclin A (Homo sapiens, UniProt P24941); assay: Lanthascreen kinase binding assay, CDK2; conditions: for Lanthascreen signal, sheet CDK2: raw replicates, experiment r1-r11
T1 construct: purchased Thermo Fisher
Description: (§1) Lanthascreen experiments were performed using commercially available reagents (Thermo Fisher) and according to the manufacturer’s instructions.

[1] = system: cyclin K–eGFP degradation reporter; assay: Cyclin K reporter stability analysis (dual-color cyclin K–eGFP reporter); assay type: cell-based, human; conditions: source data sheet correlations; read-out: DC50
Method in brief: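 Readout was the eGFP-to-mCherry geometric-mean ratio by flow cytometry, normalized to three DMSO controls, after 5 h drug exposure. Cells used were HEK293T–Cas9 expressing the dual-colour cyclin K–eGFP degradation reporter.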

CDK9–cyclin T = molecular target: T2, CDK9–cyclin T (Homo sapiens, UniProt P50750); assay: Lanthascreen kinase binding assay, CDK9; conditions: for Lanthascreen TR-FRET signal (raw ratio), sheet CDK9: first titration set (r1), duplicates
T2 construct: purchased Thermo Fisher
T2 sequence (P50750 whole entry): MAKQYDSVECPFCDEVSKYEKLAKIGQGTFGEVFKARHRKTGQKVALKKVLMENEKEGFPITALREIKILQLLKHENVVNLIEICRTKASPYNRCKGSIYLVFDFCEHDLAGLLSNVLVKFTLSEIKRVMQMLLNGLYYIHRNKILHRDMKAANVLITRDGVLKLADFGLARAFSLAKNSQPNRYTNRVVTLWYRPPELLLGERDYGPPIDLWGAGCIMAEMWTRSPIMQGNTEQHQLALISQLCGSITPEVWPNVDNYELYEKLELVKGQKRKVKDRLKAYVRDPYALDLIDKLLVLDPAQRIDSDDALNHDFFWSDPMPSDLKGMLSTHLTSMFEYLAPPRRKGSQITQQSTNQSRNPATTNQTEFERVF
T2 sequence (O60563 whole entry partner): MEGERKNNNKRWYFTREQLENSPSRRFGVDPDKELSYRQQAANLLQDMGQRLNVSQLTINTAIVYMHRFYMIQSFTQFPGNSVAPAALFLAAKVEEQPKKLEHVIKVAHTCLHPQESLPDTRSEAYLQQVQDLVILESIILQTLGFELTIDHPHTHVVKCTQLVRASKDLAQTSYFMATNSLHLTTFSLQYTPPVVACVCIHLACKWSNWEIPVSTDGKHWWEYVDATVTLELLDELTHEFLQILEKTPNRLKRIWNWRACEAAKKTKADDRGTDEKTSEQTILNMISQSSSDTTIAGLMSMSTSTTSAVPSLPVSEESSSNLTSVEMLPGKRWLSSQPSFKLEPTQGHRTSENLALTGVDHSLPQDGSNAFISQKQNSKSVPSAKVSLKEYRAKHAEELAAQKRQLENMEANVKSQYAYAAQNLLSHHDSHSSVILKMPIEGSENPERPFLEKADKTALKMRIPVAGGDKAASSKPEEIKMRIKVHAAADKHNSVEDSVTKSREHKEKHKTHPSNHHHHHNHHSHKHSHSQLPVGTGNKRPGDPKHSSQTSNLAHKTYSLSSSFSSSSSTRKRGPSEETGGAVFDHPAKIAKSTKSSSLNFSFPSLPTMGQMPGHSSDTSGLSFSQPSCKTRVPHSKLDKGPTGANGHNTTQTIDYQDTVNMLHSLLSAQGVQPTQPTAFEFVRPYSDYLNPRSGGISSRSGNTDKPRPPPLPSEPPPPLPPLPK
Description: as §1

CDK12–cyclin K = CDK12–cyclin K (Homo sapiens, UniProt Q9NYV4); assay: Lanthascreen kinase binding assay, CDK12; conditions: for Lanthascreen raw signal, sheet CDK12: series r1, duplicates
CDK12–cyclin K, sequence (Q9NYV4 713-1052): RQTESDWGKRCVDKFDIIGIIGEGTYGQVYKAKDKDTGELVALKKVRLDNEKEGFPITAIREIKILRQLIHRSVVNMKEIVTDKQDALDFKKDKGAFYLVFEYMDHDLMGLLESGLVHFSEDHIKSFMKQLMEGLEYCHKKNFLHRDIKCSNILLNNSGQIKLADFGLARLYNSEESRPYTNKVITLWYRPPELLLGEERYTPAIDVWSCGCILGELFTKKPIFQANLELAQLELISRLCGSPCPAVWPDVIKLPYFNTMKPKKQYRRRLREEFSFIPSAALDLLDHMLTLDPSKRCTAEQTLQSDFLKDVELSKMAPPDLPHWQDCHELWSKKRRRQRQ
CDK12–cyclin K, sequence (O75909 1-267 partner limits assumed): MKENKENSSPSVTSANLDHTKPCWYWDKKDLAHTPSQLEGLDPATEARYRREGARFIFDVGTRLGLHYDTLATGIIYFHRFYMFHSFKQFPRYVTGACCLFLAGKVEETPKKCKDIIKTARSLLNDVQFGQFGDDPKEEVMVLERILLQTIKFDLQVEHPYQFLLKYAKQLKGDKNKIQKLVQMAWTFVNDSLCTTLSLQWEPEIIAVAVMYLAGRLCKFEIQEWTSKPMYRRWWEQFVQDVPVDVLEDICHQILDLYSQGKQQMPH
Description: as §1

HEK293T cells = assay: Drug sensitivity assay (CellTiter-Glo viability) with or without MLN4924 pretreatment; assay type: cell-based, human; conditions: Supplementary Table 2
Method in brief: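 HEK293T–Cas9 cells at 0.15 × 10^6 ml^−1 were treated with DMSO or 100 nM MLN4924 before plating. Test drugs were added 2 h later and exposure lasted 3 days. Viability was read by CellTiter-Glo luminescence and expressed relative to DMSO controls.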

CDK12–cyclin K and DDB1 = molecular target: T3, CDK12–cyclin K and DDB1 (Homo sapiens, UniProt Q16531+Q9NYV4, K965R); assay: TR-FRET ternary complex formation assay (compound titration); assay type: binding
T3 construct: His6–CDK12 (a.a. 713–1,052); full-length or beta-propeller B domain deletion (ΔBPB: a.a. 396–705 deleted) constructs of His6–DDB1ΔBPB, StrepII–Avi–DDB1, or His6–Spy–DDB1; made in house; host or cells: Trichoplusia ni High Five insect cells (baculovirus)
T3 sequence (Q9NYV4 713-1052 K965R): as the sequence (Q9NYV4 713-1052) above, with K253R counted along it
T3 sequence (O75909 1-267 partner): as the sequence (O75909 1-267 partner limits assumed) above
T3 sequence (Q16531 whole entry): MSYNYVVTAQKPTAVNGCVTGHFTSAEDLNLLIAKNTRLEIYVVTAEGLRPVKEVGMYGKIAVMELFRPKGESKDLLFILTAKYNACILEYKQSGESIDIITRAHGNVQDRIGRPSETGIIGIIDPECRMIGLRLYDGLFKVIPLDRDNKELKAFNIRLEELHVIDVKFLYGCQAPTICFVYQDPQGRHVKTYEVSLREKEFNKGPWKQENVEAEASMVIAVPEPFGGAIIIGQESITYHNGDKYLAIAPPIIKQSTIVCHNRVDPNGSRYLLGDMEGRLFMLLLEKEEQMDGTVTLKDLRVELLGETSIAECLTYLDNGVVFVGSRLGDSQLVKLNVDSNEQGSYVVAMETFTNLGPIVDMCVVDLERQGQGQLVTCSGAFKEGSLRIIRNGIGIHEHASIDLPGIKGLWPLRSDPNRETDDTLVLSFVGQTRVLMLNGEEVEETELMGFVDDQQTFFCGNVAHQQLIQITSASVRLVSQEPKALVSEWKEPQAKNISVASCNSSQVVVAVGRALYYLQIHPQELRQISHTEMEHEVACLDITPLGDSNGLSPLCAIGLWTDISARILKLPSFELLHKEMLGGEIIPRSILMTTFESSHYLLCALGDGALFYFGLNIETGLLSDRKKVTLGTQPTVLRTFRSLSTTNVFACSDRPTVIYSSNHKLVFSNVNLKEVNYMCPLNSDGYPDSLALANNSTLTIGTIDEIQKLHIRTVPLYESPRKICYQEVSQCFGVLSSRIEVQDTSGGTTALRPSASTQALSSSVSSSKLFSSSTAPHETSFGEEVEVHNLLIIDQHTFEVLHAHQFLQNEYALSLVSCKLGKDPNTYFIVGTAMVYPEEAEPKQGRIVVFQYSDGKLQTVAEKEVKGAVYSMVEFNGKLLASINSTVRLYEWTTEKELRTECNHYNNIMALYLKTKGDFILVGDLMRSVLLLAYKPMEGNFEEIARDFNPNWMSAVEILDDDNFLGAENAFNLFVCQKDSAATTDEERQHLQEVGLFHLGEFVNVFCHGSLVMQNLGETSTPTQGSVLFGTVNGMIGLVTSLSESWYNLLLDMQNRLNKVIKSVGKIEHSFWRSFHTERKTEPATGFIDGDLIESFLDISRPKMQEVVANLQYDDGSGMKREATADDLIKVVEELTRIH
Method in brief: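 Read-out used a 70 μs delay to cut background fluorescence; TR-FRET signal taken as the 520 nm/490 nm emission ratio.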

Cn1cc(-c2cnn3c(NCc4nc5cc(Cl)c(Cl)cc5[nH]4)nc(N4CCOCC4)nc23)cn1 [DS74]
Lanthascreen signal, sheet CDK2 (CDK2–cyclin A; Compound 1.02544 nM): 0.01044 and 0.01012
Lanthascreen signal, sheet CDK2 (CDK2–cyclin A; Compound 3.15521 nM): 0.0108 and 0.009644
Lanthascreen signal, sheet CDK2 (CDK2–cyclin A; Compound 9.46563 nM): 0.01089 and 0.009432
Lanthascreen signal, sheet CDK2 (CDK2–cyclin A; Compound 31.5521 nM): 0.01098 and 0.01188
Lanthascreen signal, sheet CDK2 (CDK2–cyclin A; Compound 99.3891 nM): 0.011 and 0.01075
Lanthascreen signal, sheet CDK2 (CDK2–cyclin A; Compound 315.521 nM): 0.009926 and 0.01051
Lanthascreen signal, sheet CDK2 (CDK2–cyclin A; Compound 3155.21 nM): 0.01049 and 0.01005
Lanthascreen signal, sheet CDK2 (CDK2–cyclin A; Compound 10002 nM): 0.009311 and 0.007215
IC50 (CDK2–cyclin A; Lanthascreen, average, Extended Data Fig. 8, read-out: CDK2 IC50): > 10000 nM
IC50 (CDK2–cyclin A; Supplementary Table 2, read-out: Lanthascreen IC50 [nM] CDK2): > 10000 nM
DC50 [1]: 51 nM
IC50 (CDK9–cyclin T; Supplementary Table 2, read-out: Lanthascreen IC50 [nM] CDK9): 2580 nM
Lanthascreen TR-FRET signal (raw ratio), sheet CDK9 (CDK9–cyclin T; compound 1.02544 nM): 0.01642 and 0.01407
Lanthascreen TR-FRET signal (raw ratio), sheet CDK9 (CDK9–cyclin T; compound 3.15521 nM): 0.01297 and 0.01448
Lanthascreen TR-FRET signal (raw ratio), sheet CDK9 (CDK9–cyclin T; compound 9.46563 nM): 0.01462 and 0.01504
Lanthascreen TR-FRET signal (raw ratio), sheet CDK9 (CDK9–cyclin T; compound 31.5521 nM): 0.01422 and 0.01715
Lanthascreen TR-FRET signal (raw ratio), sheet CDK9 (CDK9–cyclin T; compound 99.3891 nM): 0.0151 and 0.01375
Lanthascreen TR-FRET signal (raw ratio), sheet CDK9 (CDK9–cyclin T; compound 315.521 nM): 0.01436 and 0.01406
Lanthascreen TR-FRET signal (raw ratio), sheet CDK9 (CDK9–cyclin T; compound 3155.21 nM): 0.01124 and 0.01046
Lanthascreen TR-FRET signal (raw ratio), sheet CDK9 (CDK9–cyclin T; compound 10002 nM): 0.00772 and 0.01002
IC50 (CDK12–cyclin K; Supplementary Table 2, read-out: Lanthascreen IC50 [nM] CDK12): 25 nM
Lanthascreen raw signal, sheet CDK12 (CDK12–cyclin K; compound 1.02544 nM): 0.009355 and 0.008483
Lanthascreen raw signal, sheet CDK12 (CDK12–cyclin K; compound 3.15521 nM): 0.00952 and 0.009538
Lanthascreen raw signal, sheet CDK12 (CDK12–cyclin K; compound 9.46563 nM): 0.009122 and 0.008857
Lanthascreen raw signal, sheet CDK12 (CDK12–cyclin K; compound 31.5521 nM): 0.006579 and 0.007668
Lanthascreen raw signal, sheet CDK12 (CDK12–cyclin K; compound 99.3891 nM): 0.005593 and 0.007192
Lanthascreen raw signal, sheet CDK12 (CDK12–cyclin K; compound 315.521 nM): 0.006881 and 0.006508
Lanthascreen raw signal, sheet CDK12 (CDK12–cyclin K; compound 3155.21 nM): 0.007229 and 0.005774
Lanthascreen raw signal, sheet CDK12 (CDK12–cyclin K; compound 10002 nM): 0.005716 and 0.005184
EC50 (HEK293T cells; Homo sapiens, HEK-293T, HEK293T viability, 72 h, compound alone, read-out: Cellular assays EC50): 104 nM
Toxicity rescue (HEK293T cells; MLN4924-mediated cytotoxicity rescue, 10 µM used where n.d.): 916%
TR-FRET signal at compound concentration 0.468 nM (CDK12–cyclin K and DDB1; compound concentration 0.468 nM, raw replicate titration data): 0.2798 and 0.3065 and 0.1782 and 0.1849
TR-FRET signal at compound concentration 2.16 nM (CDK12–cyclin K and DDB1; compound concentration 2.16 nM, raw replicate titration data): 0.3614 and 0.3498 and 0.2211 and 0.2229
TR-FRET signal at compound concentration 3.6 nM (CDK12–cyclin K and DDB1; compound concentration 3.6 nM, raw replicate titration data): 0.435 and 0.4393 and 0.2978 and 0.2973
TR-FRET signal at compound concentration 7.92001 nM (CDK12–cyclin K and DDB1; compound concentration 7.92001 nM, raw replicate titration data): 0.5995 and 0.6274 and 0.4373 and 0.4353
TR-FRET signal at compound concentration 15.84 nM (CDK12–cyclin K and DDB1; compound concentration 15.84 nM, raw replicate titration data): 0.9577 and 0.9944 and 0.7392 and 0.7343
TR-FRET signal at compound concentration 30.96 nM (CDK12–cyclin K and DDB1; compound concentration 30.96 nM, raw replicate titration data): 1.593 and 1.564 and 1.2847 and 1.436
TR-FRET signal at compound concentration 62.6401 nM (CDK12–cyclin K and DDB1; compound concentration 62.6401 nM, raw replicate titration data): 1.875 and 1.832 and 1.71 and 1.6908
TR-FRET signal at compound concentration 125.28 nM (CDK12–cyclin K and DDB1; compound concentration 125.28 nM, raw replicate titration data): 1.954 and 1.862 and 1.734 and 1.741
TR-FRET signal at compound concentration 244.8 nM (CDK12–cyclin K and DDB1; compound concentration 244.8 nM, raw replicate titration data): 2.043 and 1.982 and 1.799 and 1.754
TR-FRET signal at compound concentration 993.601 nM (CDK12–cyclin K and DDB1; compound concentration 993.601 nM, raw replicate titration data): 2.0625 and 2.016 and 1.825 and 1.774
TR-FRET signal at compound concentration 2001.6 nM (CDK12–cyclin K and DDB1; compound concentration 2001.6 nM, raw replicate titration data): 1.983 and 1.981 and 1.797 and 1.763
EC50 (CDK12–cyclin K and DDB1; in vitro complex formation, 50 nM CDK12–cyclin K, 100 nM DDB1, text and figures, read-out: TR-FRET EC50): 20 ± 1 nM
EC50 (CDK12–cyclin K and DDB1; sheet MOESM7, read-out: log TR-FRET EC50 (converted)): 19.8 nM
EC50 (CDK12–cyclin K and DDB1; source data sheet correlations, read-out: TR-FRET EC50): 19.8 nM
